According to paper PMC9021288 (Nature Communications, 2022):
Several values for one entry are separate records, joined by “and”; a condition that tells them apart may be missing. Identical values can stand only once. Entries after “also recorded” stand apart in the source; their conditions may differ. Like-named read-outs stand apart in the source and are kept apart here.

Tests used:
[1] = Stability under stress storage conditions (XRPD); type: physicochemical; details: 40 °C, 75% RH open and closed container or 60 °C, one month
[2] = test system: P. falciparum (NF54-HGL) stage V gametocytes fed to A. stephensi; assay: Transmission-blocking mosquito feeding assay (oocyst luminescence); type: cell-based, Plasmodium falciparum
Procedure: The transmission-blocking activity of compounds was determined as described previously. Briefly, NF54-HGL parasites were set up at 1% parasitemia in a semi-automated shaker system at 5% hematocrit. […] Eight days after the feed, luminescence was quantified to determine oocyst intensity.

rat primary hepatocytes = assay: Primary hepatocyte viability (CellTiter-Blue), rat; type: cell-based; details: for %Viability: Rat primary hepatocytes
Procedure: Safety studies were performed by commercial services using their standard protocols. […] Genotoxicity was investigated using the Ames test (Bacterial Reverse Mutation Assay) (Covance Laboratories Ltd, North Yorkshire, England). In vitro mammalian cell micronucleus screening assay was studied in human peripheral blood lymphocytes (BioReliance Corporation, Rockville, USA). Cardiotoxicity was determined against the hERG channel in an automated patch clamp assay using the Qpatch or against the hNaV 1.5, hKV 1.5 and hCaV 1.2 using a manual patch-clamp technique (Metrion Biosciences, Cambridge, UK). Cytotoxicity in human and rat primary hepatocytes was assessed using the CellTiter-Blue assay performed by commercial services (KaLy-Cell). The viability of HepG2 cells was monitored through the addition of 1 mM resazurin. Following 6 h incubation, the relative amount of reduced resazurin was detected in a fluorimeter and compared to the assay controls (vehicle: 0.1% DMSO and positive control: 10 µM puromycin).

[3] = Plasma protein binding, mouse
[4] = 7-day Maximum Tolerated Dose 1 (MTD1) rat study; type: in vivo, Wistar Han rats; set-up: AUC(0 - t) / Cmax / Urea / Glucose / Triglycerides: unit not given here
Source text: See the summary of the study design in Supplementary Table 31. Nine-week-old Wistar (Crl:WI (Han)) rats were obtained from Charles River Laboratories (Domaine des Oncins, Saint-Germain-Nuelles, France). […] Animals were examined daily for any altered clinical signs, body weights, and food consumption. Blood samples were taken at different timepoints after the test item administration, and toxicokinetic exposure assessed under the defined experimental conditions and analyzed using Phoenix (version 6.4 and 1.4) (Supplementary Table 32). Measurements included hematology and clinical chemistry measurements. Animals were euthanized and necropsied at the end of the dosing period. At necropsy, major organ systems and tissues were collected and weighed and then examined for gross lesions as well as for microscopic changes.

[5] = test system: P. falciparum field isolates from Uganda; assay: Ex vivo growth inhibition assay, Uganda field isolates; type: cell-based, Plasmodium falciparum; details: N = 230 isolates
Procedure: An ex vivo growth inhibition assay was performed on fresh clinical P. falciparum isolates in Uganda. […] Parasite density was quantified by fluorescence after incubation with SYBR Green lysis buffer measured on a BMG Fluostar Optima plate reader, as previously described.

## C[C@@H](CNC(=O)[C@H](O)C(C)(C)CO)NC(=O)c1cc(F)c(F)cc1F [MMV693183]
[1]
  stability after storage under stress conditions: chemically stable; also recorded: no form-change
[2]; 1 µM directly at the time of the mosquito feed
  midgut infection: did not inhibit midgut infection
[2]; gametocytes treated 24 h before feeding to A. stephensi, read-out: IC50 oocyst formation
  IC50: 0.038 µM
Rat primary hepatocytes; Batch R14I19, 0.1 µM
  %Viability: 103%
Rat primary hepatocytes; Batch R14I19, 0.5 µM
  %Viability: 105%
Rat primary hepatocytes; Batch R14I19, 1 µM
  %Viability: 101%
Rat primary hepatocytes; Batch R14I19, 5 µM
  %Viability: 101%
Rat primary hepatocytes; Batch R14I19, 10 µM
  %Viability: 101%
Rat primary hepatocytes; Batch R17G25, 0.1 µM
  %Viability: 111%
Rat primary hepatocytes; Batch R17G25, 0.5 µM
  %Viability: 109%
Rat primary hepatocytes; Batch R17G25, 1 µM
  %Viability: 111%
Rat primary hepatocytes; Batch R17G25, 5 µM
  %Viability: 106%
Rat primary hepatocytes; Batch R17G25, 10 µM
  %Viability: 106%
Rat primary hepatocytes; primary rat hepatocytes
  IC50: > 10 µM
[3]
  plasma protein binding: 33%
[4]; 60, 200, 600 mg/kg/day, 7 days
  mortality: no mortality occurred
[4]; Female, 60 mg/kg
  Glucose: 6.25 and 5.62 and 5.48
  Triglycerides: 0.3 and 0.46 and 0.39
  Urea: 6.7 and 8 and 8.3
[4]; Female, 200 mg/kg
  Glucose: 5.19 and 5.85 and 7.06
  Triglycerides: 0.51 and 0.91 and 0.6
  Urea: 7.8 and 8 and 8.4
[4]; Female, 600 mg/kg
  Glucose: 6.4 and 7.42 and 7.56
  Triglycerides: 0.6 and 0.51 and 0.37
  Urea: 7.4 and 6.8 and 9.9
[4]; MTD1 60 mg/kg/day, Females
  Liver weight: 4.77 g
[4]; MTD1 60 mg/kg/day, Females, Day 1 then Day 7
  AUC(0 - t): 88.9
[4]; MTD1 60 mg/kg/day, Males
  Liver weight: 7.73 g
[4]; MTD1 200 mg/kg/day, Females
  Liver weight: 6.00 g
[4]; MTD1 200 mg/kg/day, Males
  Liver weight: 8.66 g
[4]; MTD1 600 mg/kg/day, Females
  Liver weight: 7.44 g
[4]; MTD1 600 mg/kg/day, Males
  Liver weight: 11.22 g
[4]; MTD1 females, Day 1, 60 mg/kg/day, 0 h
  Concentration: LLOQ
[4]; MTD1 females, Day 1, 60 mg/kg/day, 1 h
  Concentration: 33.6 µM and 28.3 µM
[4]; MTD1 females, Day 1, 60 mg/kg/day, 4 h
  Concentration: 2.9 µM and 3.29 µM
[4]; MTD1 females, Day 1, 60 mg/kg/day, 8 h
  Concentration: 1.05 µM and 0.628 µM
[4]; MTD1 females, Day 1, 60 mg/kg/day, 24 h
  Concentration: LLOQ
[4]; MTD1 females, Day 1, 200 mg/kg/day, 0 h
  Concentration: LLOQ
[4]; MTD1 females, Day 1, 200 mg/kg/day, 1 h
  Concentration: 86.7 µM and 116 µM
[4]; MTD1 females, Day 1, 200 mg/kg/day, 4 h
  Concentration: 21.3 µM and 11.6 µM
[4]; MTD1 females, Day 1, 200 mg/kg/day, 8 h
  Concentration: 6.7 µM and 4.68 µM
[4]; MTD1 females, Day 1, 600 mg/kg/day, 0 h
  Concentration: LLOQ
[4]; MTD1 females, Day 1, 600 mg/kg/day, 1 h
  Concentration: 311 µM
[4]; MTD1 females, Day 1, 600 mg/kg/day, 4 h
  Concentration: 74.9 µM and 64.8 µM
[4]; MTD1 females, Day 1, 600 mg/kg/day, 8 h
  Concentration: 49.5 µM and 25.8 µM
[4]; MTD1 females, Day 1, 600 mg/kg/day, 24 h
  Concentration: LLOQ
[4]; MTD1 females, Day 7, 60 mg/kg/day, 0 h
  Concentration: LLOQ
[4]; MTD1 females, Day 7, 60 mg/kg/day, 1 h
  Concentration: 21.8 µM and 20.3 µM
[4]; MTD1 females, Day 7, 60 mg/kg/day, 4 h
  Concentration: 2.9 µM and 3.02 µM
[4]; MTD1 females, Day 7, 60 mg/kg/day, 8 h
  Concentration: 0.604 µM and 1.2 µM
[4]; MTD1 females, Day 7, 60 mg/kg/day, 24 h
  Concentration: LLOQ
[4]; MTD1 females, Day 7, 200 mg/kg/day, 0 h
  Concentration: LLOQ
[4]; MTD1 females, Day 7, 200 mg/kg/day, 1 h
  Concentration: 10.4 µM and 9.61 µM
[4]; MTD1 females, Day 7, 200 mg/kg/day, 4 h
  Concentration: 5.35 µM and 3.22 µM
[4]; MTD1 females, Day 7, 200 mg/kg/day, 8 h
  Concentration: 0.804 µM and 0.957 µM
[4]; MTD1 females, Day 7, 200 mg/kg/day, 24 h
  Concentration: LLOQ
[4]; MTD1 females, Day 7, 600 mg/kg/day, 0 h
  Concentration: 0.568 µM and 0.368 µM
[4]; MTD1 females, Day 7, 600 mg/kg/day, 1 h
  Concentration: 15.1 µM and 29.6 µM
[4]; MTD1 females, Day 7, 600 mg/kg/day, 4 h
  Concentration: 8.62 µM and 9.68 µM
[4]; MTD1 females, Day 7, 600 mg/kg/day, 8 h
  Concentration: 6.83 µM and 6.42 µM
[4]; MTD1 males, Day 1, 60 mg/kg/day, 0 h
  Concentration: LLOQ
[4]; MTD1 males, Day 1, 60 mg/kg/day, 1 h
  Concentration: 12 µM and 13.7 µM
[4]; MTD1 males, Day 1, 60 mg/kg/day, 4 h
  Concentration: 1.09 µM and 1.97 µM
[4]; MTD1 males, Day 1, 60 mg/kg/day, 24 h
  Concentration: LLOQ
[4]; MTD1 males, Day 1, 200 mg/kg/day, 0 h
  Concentration: LLOQ
[4]; MTD1 males, Day 1, 200 mg/kg/day, 1 h
  Concentration: 98.9 µM and 133 µM
[4]; MTD1 males, Day 1, 200 mg/kg/day, 4 h
  Concentration: 14 µM and 18.5 µM
[4]; MTD1 males, Day 1, 200 mg/kg/day, 24 h
  Concentration: LLOQ
[4]; MTD1 males, Day 1, 600 mg/kg/day, 0 h
  Concentration: LLOQ
[4]; MTD1 males, Day 1, 600 mg/kg/day, 1 h
  Concentration: 189 µM and 295 µM
[4]; MTD1 males, Day 1, 600 mg/kg/day, 4 h
  Concentration: 69.9 µM and 98.6 µM
[4]; MTD1 males, Day 7, 60 mg/kg/day, 0 h
  Concentration: LLOQ
[4]; MTD1 males, Day 7, 60 mg/kg/day, 1 h
  Concentration: 2.78 µM and 3.29 µM
[4]; MTD1 males, Day 7, 60 mg/kg/day, 8 h
  Concentration: LLOQ
[4]; MTD1 males, Day 7, 60 mg/kg/day, 24 h
  Concentration: LLOQ
[4]; MTD1 males, Day 7, 200 mg/kg/day, 0 h
  Concentration: LLOQ
[4]; MTD1 males, Day 7, 200 mg/kg/day, 1 h
  Concentration: 15.5 µM and 8.65 µM
[4]; MTD1 males, Day 7, 200 mg/kg/day, 4 h
  Concentration: 2.92 µM and 2.95 µM
[4]; MTD1 males, Day 7, 200 mg/kg/day, 8 h
  Concentration: 1.04 µM and 0.952 µM
[4]; MTD1 males, Day 7, 200 mg/kg/day, 24 h
  Concentration: LLOQ
[4]; MTD1 males, Day 7, 600 mg/kg/day, 0 h
  Concentration: LLOQ
[4]; MTD1 males, Day 7, 600 mg/kg/day, 4 h
  Concentration: 4.9 µM and 5.09 µM
[4]; MTD1 males, Day 7, 600 mg/kg/day, 24 h
  Concentration: LLOQ
[4]; MTD1 study, females, 60 mg/kg/day, individual animals
  Liver weight: 4.84 g and 4.87 g
[4]; MTD1 study, females, 200 mg/kg/day, individual animals
  Liver weight: 6.04 g and 5.86 g
[4]; MTD1 study, females, 600 mg/kg/day, individual animals
  Liver weight: 6.96 g
[4]; MTD1 study, males, 60 mg/kg/day, individual animals
  Liver weight: 8.13 g and 7.71 g
[4]; MTD1 study, males, 200 mg/kg/day, individual animals
  Liver weight: 7.63 g and 8.4 g
[4]; MTD1 study, males, 600 mg/kg/day, individual animals
  Liver weight: 11.11 g and 12.08 g
[4]; Male, 60 mg/kg
  Triglycerides: 0.56 and 0.92 and 0.69
  Urea: 6.5 and 7.4 and 9.1
[4]; Male, 60 mg/kg, 7 days, per rat
  Glucose: 7.28 and 9.9 and 8.53
[4]; Male, 200 mg/kg
  Glucose: 7.64 and 9.24 and 10.45
  Triglycerides: 0.58 and 0.71 and 0.55
  Urea: 8.3 and 8.1 and 9.4
[4]; Male, 600 mg/kg
  Glucose: 5.54 and 8.3 and 8.46
  Triglycerides: 0.57 and 0.62 and 0.56
  Urea: 9.5 and 9.2 and 8.3
[4]; males, 600 mg/kg/day
  increase in liver weight: up to 71%
[4]; rat, in vivo
  hematological and clinical chemistry parameters: no significant treatment-related deviations
[5]; read-out: IC50 maximum
  IC50: 0.011 µM
[5]; read-out: IC50 minimum
  IC50: 0.0003 µM
